Consider 15 compounds from paper PMC6611404 (Frontiers in Aging Neuroscience, 2019).

Where “and” joins values, the source holds several entries; their conditions need not be identical. Equal values may be shown once. Read-outs that look alike come from different tables or passages of the source.

Assay [1] has as its target T1, AChE from human erythrocytes (Homo sapiens, UniProt P22303).
T1 construct: AChE from human erythrocytes; purchased Sigma Aldrich; host or cells: human erythrocytes (natural source)
Put plainly: biochemical. Particulars: for inhibition at 1 µM: read-out: (h)AChE % inhibition at 10^−6M. On the procedure: Acetylthiocholine iodide and 5,5-dithiobis-(2-nitrobenzoic) acid (DTNB) were purchased from Sigma Aldrich. AChE from human erythrocytes (buffered aqueous solution, ≥500 units/mg protein (BCA), Sigma Aldrich) was diluted in 20 mM HEPES buffer pH 8, 0.1% Triton X-100 such as to have enzyme solution with 0.25 unit/mL enzyme activity. In the procedure, 100 μL of 0.3 mM DTNB dissolved in phosphate buffer pH 7.4 was added into the 96-well plate followed by 50 μL of test compound solution and 50 μL of enzyme (0.05 U final). After 5 min of preincubation at 25°C, the reaction was then initiated by the injection of 50 μL of 10 mM acetylthiocholine iodide solution. […] Assays were performed with a blank containing all components except acetylthiocholine, in order to account for non-enzymatic reaction. The reaction slopes were compared and the percent inhibition due to the presence of test compounds was calculated by the following expression: 100 − (vi/v0 × 100) where vi is the rate calculated in the presence of inhibitor and v0 is the enzyme activity.

In assay [2] the target is T2, human 5-HT6 receptors (Homo sapiens, UniProt P50406).
T2 construct: purchased Perkin Elmer RBHS6M; host or cells: HEK-293 cells, transient expression (membranes)
T2 sequence (P50406 whole entry): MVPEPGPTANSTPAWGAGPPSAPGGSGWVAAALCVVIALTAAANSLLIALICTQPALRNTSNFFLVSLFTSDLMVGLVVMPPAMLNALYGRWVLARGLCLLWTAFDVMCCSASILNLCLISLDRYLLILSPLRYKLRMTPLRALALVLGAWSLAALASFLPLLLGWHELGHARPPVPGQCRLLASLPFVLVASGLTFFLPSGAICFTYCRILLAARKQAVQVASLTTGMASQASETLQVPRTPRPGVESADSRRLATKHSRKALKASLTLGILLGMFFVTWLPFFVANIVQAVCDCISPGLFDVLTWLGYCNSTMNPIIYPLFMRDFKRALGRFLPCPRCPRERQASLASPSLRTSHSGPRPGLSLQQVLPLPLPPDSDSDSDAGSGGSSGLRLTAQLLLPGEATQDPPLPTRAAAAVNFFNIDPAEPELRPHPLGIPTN
Put plainly: [3H]-LSD competition binding on membranes of HEK-293 cells expressing human 5-HT6 receptors. The settings on record: for inhibition / inhibition at 0.0025 µM: 2.5 nM [3H]-LSD; for Ki: (h)5-HT6R Ki, n = 3, Ki ± SD. Here is the method:
Drugs were evaluated through their possibility to compete for the binding of [^3H]-LSD on membranes of HEK-293 cells transiently expressing the human 5-HT6 receptors (ref. RBHS6M, Perkin Elmer). […] At the end of the incubation, the homogenates were then filtered through Whatman GF/C filters and washed five times with ice-cold 25 mM Tris-HCl buffer. Non-specific binding was evaluated in the presence of 100 μM serotonin. Radioactivity associated to proteins was then quantified and expressed as the percentage of inhibition of the drugs under study.
(§1) For some of these compounds, affinity constants were calculated from five-point inhibition curves using the GraphPad Prism 6 software and expressed as Ki ± SD.

Assay [3] addresses T3, Human 5-HT4R (Homo sapiens, UniProt Q13639).
T3 construct: purchased Eurofins HTS110M
Nature of the assay: [3H]-GR113808 competition binding on 5-HT4(b) membrane preparations. The settings on record: for inhibition / inhibition at 0.0002 µM: 0.2 nM [3H]-GR113808; for Ki: (h)5-HT4R Ki, n = 3, Ki ± SD. On the procedure: At the end of the incubation, homogenates were filtered through Whatman GF/C filters (Alpha Biotech) presoaked with 0.5% polyethylenimine using a Brandel cell harvester. Filters were subsequently washed three times with 1 mL of ice-cold 25 mM Tris buffer (pH 7.4, 4°C). Non-specific binding was evaluated in parallel in the presence of 30 μM serotonin.
as §1

The mark [4] stands for this setting: read-out: (h)5-HT6R % inhibition at 10^−6M, 10^−6M.
[5] abbreviates: read-out: (h)5-HT6R % inhibition at 10^−8M, 10^−8M.
The mark [6] stands for this setting: read-out: (h)5-HT4R % inhibition at 10^−6M, 10^−6M.
Setting [7] is: read-out: (h)5-HT4R % inhibition at 10^−8M, 10^−8M.

T3 sequence (Q13639 whole entry): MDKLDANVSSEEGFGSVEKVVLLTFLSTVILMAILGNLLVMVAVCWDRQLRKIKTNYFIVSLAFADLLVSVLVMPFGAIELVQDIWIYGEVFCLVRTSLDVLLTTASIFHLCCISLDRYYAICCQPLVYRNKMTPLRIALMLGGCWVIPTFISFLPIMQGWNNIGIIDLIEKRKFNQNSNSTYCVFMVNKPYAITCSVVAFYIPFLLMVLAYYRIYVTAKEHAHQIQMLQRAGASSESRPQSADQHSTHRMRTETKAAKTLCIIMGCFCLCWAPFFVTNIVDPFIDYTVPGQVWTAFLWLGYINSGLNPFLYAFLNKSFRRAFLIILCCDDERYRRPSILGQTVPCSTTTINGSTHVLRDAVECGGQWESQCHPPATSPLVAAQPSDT
T1 sequence (P22303 other isoform, or with tags, fused parts or gaps): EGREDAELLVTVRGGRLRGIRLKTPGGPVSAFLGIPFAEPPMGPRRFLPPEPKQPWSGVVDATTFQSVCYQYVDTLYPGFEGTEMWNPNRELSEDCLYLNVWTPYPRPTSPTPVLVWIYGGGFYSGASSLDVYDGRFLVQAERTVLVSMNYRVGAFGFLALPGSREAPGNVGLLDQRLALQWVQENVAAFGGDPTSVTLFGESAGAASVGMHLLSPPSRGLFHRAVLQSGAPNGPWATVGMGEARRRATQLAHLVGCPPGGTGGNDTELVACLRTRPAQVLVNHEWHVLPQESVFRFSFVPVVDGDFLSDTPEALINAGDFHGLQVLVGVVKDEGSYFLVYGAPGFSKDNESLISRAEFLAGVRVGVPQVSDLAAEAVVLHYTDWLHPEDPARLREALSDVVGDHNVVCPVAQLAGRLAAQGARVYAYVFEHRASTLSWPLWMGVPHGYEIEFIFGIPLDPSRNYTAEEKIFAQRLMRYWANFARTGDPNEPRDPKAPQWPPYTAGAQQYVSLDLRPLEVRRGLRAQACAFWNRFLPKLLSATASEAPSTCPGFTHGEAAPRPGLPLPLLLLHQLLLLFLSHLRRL

What is called inhibition is the drop in the measured response relative to a control, in per cent. Turning to `COc1cc(N)c(Cl)cc1C(=O)CCC1CCN(Cc2ccccc2)CC1` [5a], the inhibition at 1 µM in assay [1] came to 98%. In addition, the “affinity for 5-HT6R (in words)” value in assay [2] was “devoid of such an activity”. Further, the inhibition turned out to be 29% in assay [2] (setting [4]), 0% in assay [2] (setting [5]), 102% in assay [3] (setting [6]) and 41% in assay [3] (setting [7]).

One may read the IC50 as the concentration at which inhibition is half-maximal. A word on the Ki: it is a dissociation constant, usually derived from enzyme kinetics or from competition with a known ligand. A low value points to tighter binding. On to `COc1cc(N)c(Cl)cc1C(=O)CCC1CCN(Cc2ccccc2Cl)CC1` [5b, 1-(4-Amino-5-chloro-2-methoxyphenyl)-3-(1-(2-chlorobenzyl)piperidin-4-yl)propan-1-one], for which the IC50 in assay [1] (n = 2, read-out: (h)AChE IC50) was found to be 156 ± 71 nM. Also, in assay [1], the inhibition at 1 µM was 91%. In addition, affinity in assay [2] was put at a Ki of 110 ± 19 nM. The inhibition amounted to 27% in assay [2] (setting [5]), 94% in assay [3] (setting [6]) and 16% in assay [3] (setting [7]).

Regarding `COc1cc(N)c(Cl)cc1C(=O)CCC1CCN(Cc2ccccc2Br)CC1` [5c, 1-(4-Amino-5-chloro-2-methoxyphenyl)-3-(1-(2-bromobenzyl)piperidin-4-yl)propan-1-one], the IC50 in assay [1] (n = 2, read-out: (h)AChE IC50) turned out to be 317 ± 115 nM. Further, the inhibition at 1 µM in assay [1] came to 80%. Moreover, the inhibition in assay [2] (setting [4]) was determined as 65%; in assay [2] (setting [5]), 34%; in assay [3] (setting [6]), 96%; in assay [3] (setting [7]), 17%.

For `COc1cc(N)c(Cl)cc1C(=O)CCC1CCN(Cc2ccccc2F)CC1` [5d, 1-(4-Amino-5-chloro-2-methoxyphenyl)-3-(1-(2-fluorobenzyl)piperidin-4-yl)propan-1-one], the IC50 in assay [1] (n = 2, read-out: (h)AChE IC50) worked out at 102 ± 65.4 nM. Also, the inhibition at 1 µM in assay [1] amounted to 96%. Also, the inhibition in assay [2] (setting [4]) worked out at 68%; in assay [2] (setting [5]), 21%; in assay [3] (setting [6]), 94%; in assay [3] (setting [7]) it was 10%.

As to `COc1cc(N)c(Cl)cc1C(=O)CCC1CCN(Cc2ccccc2I)CC1` [5e, 1-(4-Amino-5-chloro-2-methoxyphenyl)-3-(1-(2-iodobenzyl)piperidin-4-yl)propan-1-one], in assay [1], the “inhibitory effect towards AChE (in words)” value is on record as “devoid of inhibitory effect towards AChE”. Moreover, in assay [1], the inhibition at 1 µM came to 37%. For the same compound, the “affinity for 5-HT6R (in words)” value in assay [2] was “displayed affinity for 5-HT6R”. This compound had a Ki in assay [2] of 186 ± 71 nM. In addition, the inhibition is 81% in assay [2] (setting [4]), 25% in assay [2] (setting [5]), 96% in assay [3] (setting [6]) and 1% in assay [3] (setting [7]).

In the case of `COc1cc(N)c(Cl)cc1C(=O)CCC1CCN(Cc2ccccc2C)CC1` [5f, 1-(4-Amino-5-chloro-2-methoxyphenyl)-3-(1-(2-methylbenzyl)piperidin-4-yl)propan-1-one], the IC50 in assay [1] (n = 2, read-out: (h)AChE IC50) stood at 225 ± 57.3 nM. The inhibition at 1 µM in assay [1] was determined as 87%. In assay [2], this compound yielded a Ki of 270 ± 14 nM. Also, the inhibition at 0.0025 µM in assay [2] (setting [4]) was above 70%. The figures for the inhibition in assay [2] (setting [5]), in assay [3] (setting [6]) and in assay [3] (setting [7]) were 24%, 98% and 9%, respectively.

For the compound `COc1cc(N)c(Cl)cc1C(=O)CCC1CCN(Cc2ccccc2OCc2ccccc2)CC1` [5g, 1-(4-Amino-5-chloro-2-methoxyphenyl)-3-(1-(2-benzyloxybenzyl)piperidin-4-yl)propan-1-one], the inhibition at 1 µM in assay [1] came out at 33%. The inhibition is 18% in assay [2] (setting [4]), 0% in assay [2] (setting [5]), 70% in assay [3] (setting [6]) and 7% in assay [3] (setting [7]).

As for `COc1cc(N)c(Cl)cc1C(=O)CCC1CCN(Cc2ccccc2O)CC1` [5h, 1-(4-Amino-5-chloro-2-methoxyphenyl)-3-(1-(2-hydroxybenzyl)piperidin-4-yl)propan-1-one], the IC50 in assay [1] (n = 2, read-out: (h)AChE IC50) is 57.4 ± 9.4 nM. Moreover, the inhibition at 1 µM in assay [1] amounted to 94%. The inhibition in assay [2] (setting [4]) was 24%; in assay [2] (setting [5]) it was 0%; in assay [3] (setting [6]), 98%; in assay [3] (setting [7]), 10%.

Take `COc1cc(N)c(Cl)cc1C(=O)CCC1CCN(Cc2cccc(Br)c2)CC1` [5i, 1-(4-Amino-5-chloro-2-methoxyphenyl)-3-(1-(3-bromobenzyl)piperidin-4-yl)propan-1-one]: in assay [1], the “inhibitory effect towards AChE (in words)” value is recorded as “devoid of inhibitory effect towards AChE”. In assay [1], the inhibition at 1 µM worked out at 44%. For the same compound, in assay [2], the “affinity for 5-HT6R (in words)” value is recorded as “displayed affinity for 5-HT6R”. Besides, in assay [2], affinity was put at a Ki of 169 ± 44 nM. The inhibition in assay [2] (setting [4]) came out at 77%; in assay [2] (setting [5]), 7%; in assay [3] (setting [6]), 94%; in assay [3] (setting [7]), 5%.

In the case of `COc1cc(N)c(Cl)cc1C(=O)CCC1CCN(Cc2cccc(F)c2)CC1` [5j, 1-(4-Amino-5-chloro-2-methoxyphenyl)-3-(1-(3-fluorobenzyl)piperidin-4-yl)propan-1-one], the IC50 in assay [1] (n = 2, read-out: (h)AChE IC50) was 91 ± 53.8 nM. For the same compound, the inhibition at 1 µM in assay [1] was 97%. Moreover, the inhibition in assay [2] (setting [4]) amounted to 59%; in assay [2] (setting [5]), 9%; in assay [3] (setting [6]) it was 98%; in assay [3] (setting [7]), 12%.

As for `COc1cc(N)c(Cl)cc1C(=O)CCC1CCN(Cc2cccc(C)c2)CC1` [5k, 1-(4-Amino-5-chloro-2-methoxyphenyl)-3-(1-(3-methylbenzyl)piperidin-4-yl)propan-1-one], half-maximal inhibition in assay [1] ((h)AChE IC50, n = 2) (IC50) was put at 161 ± 43 nM. For the same compound, the inhibition at 1 µM in assay [1] turned out to be 89%. Also, the Ki in assay [2] was 230 ± 49 nM; in assay [3] it was 168 ± 15 nM. Besides, the inhibition at 0.0025 µM in assay [2] (setting [4]) was above 70%. Further, the values for the inhibition in assay [2] (setting [5]) and in assay [3] (setting [6]) were 9% and 98%, respectively. The inhibition at 0.0002 µM in assay [3] (setting [7]) was at least 25%.

`COc1cccc(CN2CCC(CCC(=O)c3cc(Cl)c(N)cc3OC)CC2)c1` [5l, 1-(4-Amino-5-chloro-2-methoxyphenyl)-3-(1-(3-methoxybenzyl)piperidin-4-yl)propan-1-one]: the “inhibitory effect towards AChE (in words)” value in assay [1] is listed as “devoid of inhibitory effect towards AChE”. Besides, the inhibition at 1 µM in assay [1] was 35%. Further, in assay [2], the “affinity for 5-HT6R (in words)” value is “displayed affinity for 5-HT6R”. Affinity in assay [2] was put at a Ki of 265 ± 64 nM. For the same compound, the inhibition in assay [2] (setting [4]) was determined as 78%; in assay [2] (setting [5]), 6%; in assay [3] (setting [6]) it was 94%; in assay [3] (setting [7]), 9%.

Regarding `COc1cc(N)c(Cl)cc1C(=O)CCC1CCN(Cc2cccc(N)c2)CC1` [5m, 1-(4-Amino-5-chloro-2-methoxyphenyl)-3-(1-(3-aminobenzyl)piperidin-4-yl)propan-1-one], in assay [1] (n = 2, read-out: (h)AChE IC50), the IC50 worked out at 41 ± 5 nM. Moreover, the inhibition at 1 µM in assay [1] was found to be 93%. The Ki in assay [2] is 1150 ± 559 nM; in assay [3], 43 nM and 42.5 nM. Further, the inhibition at 0.0025 µM in assay [2] (setting [4]) was above 70%. Further, the figures for the inhibition in assay [2] (setting [5]) and in assay [3] (setting [6]) were 31% and 100%, respectively. The inhibition at 0.0002 µM in assay [3] (setting [7]) is at least 25%.

On to `COc1cc(N)c(Cl)cc1C(=O)CCC1CCN(Cc2cccc([N+](=O)[O-])c2)CC1` [5n, 1-(4-Amino-5-chloro-2-methoxyphenyl)-3-(1-(3-nitrobenzyl)piperidin-4-yl)propan-1-one], for which the inhibition at 1 µM in assay [1] turned out to be 64%. Further, the inhibition in assay [2] (setting [4]) is 51%; in assay [2] (setting [5]), 0%; in assay [3] (setting [6]), 90%; in assay [3] (setting [7]), 3%.

Regarding `COc1cc(N)c(Cl)cc1C(=O)CCC1CCN(Cc2ccc(F)cc2)CC1` [5o, 1-(4-Amino-5-chloro-2-methoxyphenyl)-3-(1-(4-fluorobenzyl)piperidin-4-yl)propan-1-one], the IC50 in assay [1] (n = 2, read-out: (h)AChE IC50) turned out to be 78.4 ± 12.1 nM. For the same compound, the inhibition at 1 µM in assay [1] worked out at 92%. Further, the inhibition came to 58% in assay [2] (setting [4]), 13% in assay [2] (setting [5]), 102% in assay [3] (setting [6]) and 19% in assay [3] (setting [7]).
